Patent US20090221573A1, “Use of Activators of Soluble Guanylate Cyclase for Promoting Wound Healing” (Bayer HealthCare AG, priority 2005, published 2009)
Read-outs that look alike come from different tables or passages of the source.

Tested on: smooth muscle cells of the human coronary artery
Experiment: Inhibition of the horizontal migration of smooth muscle cells (wounded monolayer)
Assay type: cell-based
Conditions: read-out: Inhibition of the horizontal migration of smooth muscle cells of the human coronary artery, IC50
Procedure: Smooth muscle cells of the human coronary artery are seeded in a 6-well plate (1.5×10^5 cells/well) (Clonetics) and cultured in SmGM2 medium (Clonetics) for 48 h. Before the plates are used, the wells are coated with vitronectin (50 ng/cm^2; Gibco BRL). Half of the confluent cell monolayer is removed with the aid of a cell scraper (wounding). In the cell-free region, the vitronectin coating is at least 50% retained in this case. For the test, unless mentioned otherwise, the culture medium is replaced by MCDB-131/0.2% BSA (Gibco/BRL) medium. The test substances are added in various concentrations, and the migration distance in the cell-free region is followed with the aid of a microscope over 24 h and 48 h. Each measurement point represents the average of four measured regions. PDGF, as potent chemotactic factor for SMC, is used as positive control (1 nM, 10 nM, R&D systems). The RGD tripeptide (Bachem) is employed to inhibit the integrin-induced migration. To determine the antagonistic activity of the test substances, the cells are stimulated in the presence of the substance with 1 nM or 10 nM PDGF, and the migration distances are determined in relation to the PDGF-induced migration distances.

SMILES	IC50 (48 h)	IC50 (incubation time 48 h)
O=C(O)CCCCN(CCc1ccccc1OCc1ccc(CCc2ccccc2)cc1)Cc1ccc(C(=O)O)cc1 [Compound I]	5 nM	–
COC(=O)N(C)c1c(N)nc(-c2nn(Cc3ccccc3F)c3ncccc23)nc1N [IV]	–	10 nM
COC(=O)Nc1c(N)nc(-c2nn(Cc3ccccc3F)c3ncccc23)nc1N [IVa]	30 nM	–
